Results as given in patent US20250326753A1, “DUAL CXCR4-BTK INHIBITORS” (X4 Pharmaceuticals, Inc., priority 2022, published 2025).
Like-named read-outs stand apart in the source and are kept apart here.

Assays:
[1] = target: T1, RET (Homo sapiens, UniProt P07949); experiment: PanQinase kinase panel: RET; format: biochemical; settings: read-out: INHIBITORY EFFECT @ 1 uM: RET
T1 construct: purchased Reaction Biology Europe GmbH
Method: (§1) Screening procedures were performed in accordance with the company's on-line protocol [accessed on-line Mar.
(§2) For each kinase, the median value of the cpm of three wells was defined as “low control” (n=3). This value reflects unspecific binding of radioactivity to the plate in the absence of a protein kinase but in the presence of the substrate. Additionally, for each kinase the median value of the cpm of three other wells was taken as the “high control,” i.e. full activity in the absence of any inhibitor (n=3). The difference between high and low control of each enzyme was taken as 100% activity.
(§3) As part of the data evaluation the low control of each kinase was subtracted from the high control value as well as from their corresponding “compound values”. The residual activity (in %) for each compound well was calculated by using the following formula: Res. Activity (%)=100×[(signal of compound−low control)/(high control−low control)].

[2] = target: T2, RIPK2 (Homo sapiens, UniProt O43353); experiment: PanQinase kinase panel: RIPK2; format: biochemical; settings: read-out: INHIBITORY EFFECT @ 1 uM: RIPK2
T2 construct: purchased Reaction Biology Europe GmbH
T2 sequence (O43353 whole entry): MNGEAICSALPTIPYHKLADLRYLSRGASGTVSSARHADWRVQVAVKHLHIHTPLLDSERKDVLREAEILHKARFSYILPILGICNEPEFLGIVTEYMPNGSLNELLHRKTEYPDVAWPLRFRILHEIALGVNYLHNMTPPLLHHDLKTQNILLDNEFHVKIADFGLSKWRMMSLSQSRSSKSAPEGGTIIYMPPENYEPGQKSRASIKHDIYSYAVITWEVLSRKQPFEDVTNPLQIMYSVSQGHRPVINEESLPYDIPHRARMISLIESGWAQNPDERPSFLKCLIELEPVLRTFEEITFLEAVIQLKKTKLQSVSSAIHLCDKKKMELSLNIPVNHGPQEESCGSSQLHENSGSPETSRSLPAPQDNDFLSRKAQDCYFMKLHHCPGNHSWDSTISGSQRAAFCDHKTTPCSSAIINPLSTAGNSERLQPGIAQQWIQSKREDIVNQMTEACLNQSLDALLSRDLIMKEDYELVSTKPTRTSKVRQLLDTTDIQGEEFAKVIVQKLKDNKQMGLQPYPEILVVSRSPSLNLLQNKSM
Method: as §1, §2, §3

[3] = target: T3, LRRK2 (Homo sapiens, UniProt Q5S007); experiment: PanQinase kinase panel: LRRK2; format: biochemical; settings: read-out: INHIBITORY EFFECT @ 1 uM: LRRK2
T3 construct: purchased Reaction Biology Europe GmbH
T3 sequence (Q5S007 whole entry): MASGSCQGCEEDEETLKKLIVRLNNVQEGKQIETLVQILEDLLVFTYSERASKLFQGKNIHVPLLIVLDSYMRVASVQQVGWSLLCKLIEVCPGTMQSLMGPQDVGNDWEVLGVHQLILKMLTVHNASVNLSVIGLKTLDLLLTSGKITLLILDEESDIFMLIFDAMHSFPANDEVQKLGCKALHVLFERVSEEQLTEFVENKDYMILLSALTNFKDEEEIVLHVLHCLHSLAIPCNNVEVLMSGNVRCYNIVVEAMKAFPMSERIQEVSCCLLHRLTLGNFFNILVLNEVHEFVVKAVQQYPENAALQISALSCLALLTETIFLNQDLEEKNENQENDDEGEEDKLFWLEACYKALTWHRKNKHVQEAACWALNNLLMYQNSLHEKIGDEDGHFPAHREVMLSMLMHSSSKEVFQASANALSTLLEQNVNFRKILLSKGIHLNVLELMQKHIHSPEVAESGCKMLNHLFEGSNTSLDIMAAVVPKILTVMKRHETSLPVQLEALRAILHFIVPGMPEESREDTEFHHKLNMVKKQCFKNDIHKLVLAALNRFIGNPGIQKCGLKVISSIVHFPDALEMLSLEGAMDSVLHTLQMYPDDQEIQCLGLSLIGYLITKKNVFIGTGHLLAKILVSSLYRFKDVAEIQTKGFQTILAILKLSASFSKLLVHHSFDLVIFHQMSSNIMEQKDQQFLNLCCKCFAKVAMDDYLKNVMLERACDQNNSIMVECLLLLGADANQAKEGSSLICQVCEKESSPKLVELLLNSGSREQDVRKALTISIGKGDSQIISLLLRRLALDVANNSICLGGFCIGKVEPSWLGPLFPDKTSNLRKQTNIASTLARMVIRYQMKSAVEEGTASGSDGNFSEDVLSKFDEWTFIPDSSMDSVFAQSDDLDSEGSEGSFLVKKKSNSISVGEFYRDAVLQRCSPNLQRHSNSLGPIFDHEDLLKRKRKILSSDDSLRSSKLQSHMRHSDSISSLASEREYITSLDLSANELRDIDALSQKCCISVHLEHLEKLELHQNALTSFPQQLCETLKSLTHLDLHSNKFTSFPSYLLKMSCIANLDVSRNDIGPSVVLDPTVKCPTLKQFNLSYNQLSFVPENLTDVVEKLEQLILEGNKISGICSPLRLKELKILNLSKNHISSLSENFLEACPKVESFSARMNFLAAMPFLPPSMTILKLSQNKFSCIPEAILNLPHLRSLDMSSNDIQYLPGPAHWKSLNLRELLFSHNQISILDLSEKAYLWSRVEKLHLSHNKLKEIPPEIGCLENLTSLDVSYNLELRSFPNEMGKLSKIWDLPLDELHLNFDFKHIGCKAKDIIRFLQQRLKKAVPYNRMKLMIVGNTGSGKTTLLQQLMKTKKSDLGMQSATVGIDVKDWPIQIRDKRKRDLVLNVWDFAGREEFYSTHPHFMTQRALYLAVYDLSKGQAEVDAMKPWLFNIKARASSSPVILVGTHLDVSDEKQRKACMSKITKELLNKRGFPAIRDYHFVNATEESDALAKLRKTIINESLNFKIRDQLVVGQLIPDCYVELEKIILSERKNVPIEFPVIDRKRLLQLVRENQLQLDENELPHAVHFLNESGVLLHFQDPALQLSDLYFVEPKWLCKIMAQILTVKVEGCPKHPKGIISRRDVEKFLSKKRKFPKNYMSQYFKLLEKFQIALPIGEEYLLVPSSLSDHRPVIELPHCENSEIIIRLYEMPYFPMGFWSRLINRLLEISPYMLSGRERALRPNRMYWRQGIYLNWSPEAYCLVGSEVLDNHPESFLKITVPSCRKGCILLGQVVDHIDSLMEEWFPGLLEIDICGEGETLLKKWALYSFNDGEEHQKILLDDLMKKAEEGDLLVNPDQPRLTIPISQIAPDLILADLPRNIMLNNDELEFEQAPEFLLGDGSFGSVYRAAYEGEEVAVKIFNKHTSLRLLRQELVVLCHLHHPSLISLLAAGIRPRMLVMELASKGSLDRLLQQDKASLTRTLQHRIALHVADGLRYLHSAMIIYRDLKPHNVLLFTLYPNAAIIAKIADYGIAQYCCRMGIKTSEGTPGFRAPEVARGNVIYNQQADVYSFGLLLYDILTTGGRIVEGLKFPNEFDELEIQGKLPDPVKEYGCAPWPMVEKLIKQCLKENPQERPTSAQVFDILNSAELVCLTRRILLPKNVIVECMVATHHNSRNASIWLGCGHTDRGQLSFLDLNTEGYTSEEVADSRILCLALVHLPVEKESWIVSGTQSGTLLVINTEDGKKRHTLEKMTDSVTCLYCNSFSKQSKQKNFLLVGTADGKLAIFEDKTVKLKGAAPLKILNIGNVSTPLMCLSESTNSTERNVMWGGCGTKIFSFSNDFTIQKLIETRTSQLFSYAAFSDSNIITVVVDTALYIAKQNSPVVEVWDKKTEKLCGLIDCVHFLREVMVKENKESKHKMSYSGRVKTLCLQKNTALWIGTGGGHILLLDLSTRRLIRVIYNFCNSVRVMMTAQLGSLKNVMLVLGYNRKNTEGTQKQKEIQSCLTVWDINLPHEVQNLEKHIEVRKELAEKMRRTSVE
Method: as §1, §2, §3

[4] = target: T4, MINK1 (Homo sapiens, UniProt Q8N4C8); experiment: PanQinase kinase panel: MINK1; format: biochemical; settings: read-out: INHIBITORY EFFECT @ 1 uM: MINK1
T4 construct: purchased Reaction Biology Europe GmbH
Method: as §1, §2, §3

[5] = target: T5, MKK6 SDTD (Homo sapiens, UniProt P52564, S207D/T211D); experiment: PanQinase kinase panel: MKK6 SDTD; format: biochemical; settings: read-out: INHIBITORY EFFECT @ 1 uM: MKK6 SDTD
T5 construct: purchased Reaction Biology Europe GmbH
T5 sequence (P52564 1-334 S207D/T211D): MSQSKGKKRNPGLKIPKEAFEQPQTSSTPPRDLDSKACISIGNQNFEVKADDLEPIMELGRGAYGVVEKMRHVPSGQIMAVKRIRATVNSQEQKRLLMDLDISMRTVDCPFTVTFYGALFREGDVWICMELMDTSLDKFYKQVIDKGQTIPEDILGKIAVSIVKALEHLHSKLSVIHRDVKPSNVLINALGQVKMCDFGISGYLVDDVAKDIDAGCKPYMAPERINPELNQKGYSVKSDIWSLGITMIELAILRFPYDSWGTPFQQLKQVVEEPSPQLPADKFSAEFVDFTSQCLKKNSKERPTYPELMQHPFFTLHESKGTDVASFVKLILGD
Method: as §1, §2, §3

[6] = target: T6, MST1 (Homo sapiens, UniProt Q13043); experiment: PanQinase kinase panel: MST1; format: biochemical; settings: read-out: INHIBITORY EFFECT @ 1 uM: MST1
T6 construct: purchased Reaction Biology Europe GmbH
T6 sequence (Q13043 1-487): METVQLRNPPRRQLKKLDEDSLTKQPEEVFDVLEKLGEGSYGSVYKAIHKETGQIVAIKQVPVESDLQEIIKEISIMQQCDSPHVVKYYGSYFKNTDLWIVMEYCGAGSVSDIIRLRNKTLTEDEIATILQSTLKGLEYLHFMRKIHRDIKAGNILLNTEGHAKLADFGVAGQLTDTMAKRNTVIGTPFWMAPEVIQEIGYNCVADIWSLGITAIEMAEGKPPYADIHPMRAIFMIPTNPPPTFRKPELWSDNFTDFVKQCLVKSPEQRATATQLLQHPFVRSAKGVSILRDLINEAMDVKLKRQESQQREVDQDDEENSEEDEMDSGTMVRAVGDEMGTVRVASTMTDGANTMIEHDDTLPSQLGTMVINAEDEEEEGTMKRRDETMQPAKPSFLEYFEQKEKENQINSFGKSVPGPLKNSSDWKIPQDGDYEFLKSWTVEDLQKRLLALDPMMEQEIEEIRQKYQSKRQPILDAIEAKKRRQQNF
Method: as §1, §2, §3

[7] = target: T7, p38beta (Homo sapiens, UniProt Q15759); experiment: PanQinase kinase panel: p38beta; format: biochemical; settings: read-out: INHIBITORY EFFECT @ 1 uM: p38beta
T7 construct: purchased Reaction Biology Europe GmbH
T7 sequence (Q15759 whole entry): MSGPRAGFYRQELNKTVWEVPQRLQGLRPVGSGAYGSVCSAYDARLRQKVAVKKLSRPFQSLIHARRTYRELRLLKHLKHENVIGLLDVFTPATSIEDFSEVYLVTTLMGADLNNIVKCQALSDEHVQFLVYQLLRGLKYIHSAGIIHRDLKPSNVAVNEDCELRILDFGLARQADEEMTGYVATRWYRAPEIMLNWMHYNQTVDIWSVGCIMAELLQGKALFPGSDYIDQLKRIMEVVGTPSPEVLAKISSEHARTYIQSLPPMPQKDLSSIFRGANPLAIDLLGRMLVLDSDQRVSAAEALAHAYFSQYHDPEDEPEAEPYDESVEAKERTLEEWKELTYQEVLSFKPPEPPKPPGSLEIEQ
Method: as §1, §2, §3

[8] = target: T8, PDGFRalpha (Homo sapiens, UniProt P16234); experiment: PanQinase kinase panel: PDGFRalpha; format: biochemical; settings: read-out: INHIBITORY EFFECT @ 1 uM: PDGFRalpha
T8 construct: purchased Reaction Biology Europe GmbH
Method: as §1, §2, §3

[9] = test system: Ramos cell line; experiment: Ramos cell line viability assay (CellTiter-Glo, 72 hr); format: cell-based; settings: Homo sapiens
Method: Inhibition of non-Hodgkin lymphoma B-cell proliferation by compounds of the present invention was evaluated in a Ramos cell line. Ramos is a B lymphocyte cell line that was derived from a patient with Burkitt's Lymphoma.
Cell viability was analyzed with the CellTiter-Glo® Luminescent Cell Viability Assay Kit (G7572, Promega), according to the manufacturer's instruction. Cells were seeded into a 96-well/384-well plate and then incubated in 5% CO2 at 37° C. overnight. Compounds were added to the cells, with 9-10 dose points in duplicates in 3-fold dilution from a top concentration of 30 μM, and incubated in 5% CO2 at 37° C. for 72 hr. The 96-well/384-well plate was equilibrated at room temperature for 30 min. 50 μl/25 μl of CellTiter-Glo® Reagent was added to each well and mixed for 2 min on an orbital shaker to induce cell lysis. The 96-well/384-well plate was incubated at room temperature for 10 min to stabilize luminescent signal. Luminescence was detected on a PerkinElmer EnVision Multimode Plate Reader as relative luminescence units (RLU).

[10] = test system: 340 wild-type protein kinases; experiment: PanQinase wild-type kinase panel, selectivity score; format: biochemical; settings: 1 μM; for Selectivity Score: share of kinases with residual activity <50%, 340 wild-type protein kinase assays
Method: as §1
The selectivity score for a particular compound at a particular concentration was calculated by using the following formula: Selectivity Score=(count of data points <50%)/(total number of data points).

[11] = target: T9, ABL2 (Homo sapiens, UniProt P42684); experiment: PanQinase kinase panel: ABL2; format: biochemical
T9 construct: purchased Reaction Biology Europe GmbH
Method: as §1, §2, §3

[12] = class, read-out: Ramos viability IC50
[13] = read-out: INHIBITORY EFFECT @ 1 uM: ABL2

T1 sequence (P07949 29-1114): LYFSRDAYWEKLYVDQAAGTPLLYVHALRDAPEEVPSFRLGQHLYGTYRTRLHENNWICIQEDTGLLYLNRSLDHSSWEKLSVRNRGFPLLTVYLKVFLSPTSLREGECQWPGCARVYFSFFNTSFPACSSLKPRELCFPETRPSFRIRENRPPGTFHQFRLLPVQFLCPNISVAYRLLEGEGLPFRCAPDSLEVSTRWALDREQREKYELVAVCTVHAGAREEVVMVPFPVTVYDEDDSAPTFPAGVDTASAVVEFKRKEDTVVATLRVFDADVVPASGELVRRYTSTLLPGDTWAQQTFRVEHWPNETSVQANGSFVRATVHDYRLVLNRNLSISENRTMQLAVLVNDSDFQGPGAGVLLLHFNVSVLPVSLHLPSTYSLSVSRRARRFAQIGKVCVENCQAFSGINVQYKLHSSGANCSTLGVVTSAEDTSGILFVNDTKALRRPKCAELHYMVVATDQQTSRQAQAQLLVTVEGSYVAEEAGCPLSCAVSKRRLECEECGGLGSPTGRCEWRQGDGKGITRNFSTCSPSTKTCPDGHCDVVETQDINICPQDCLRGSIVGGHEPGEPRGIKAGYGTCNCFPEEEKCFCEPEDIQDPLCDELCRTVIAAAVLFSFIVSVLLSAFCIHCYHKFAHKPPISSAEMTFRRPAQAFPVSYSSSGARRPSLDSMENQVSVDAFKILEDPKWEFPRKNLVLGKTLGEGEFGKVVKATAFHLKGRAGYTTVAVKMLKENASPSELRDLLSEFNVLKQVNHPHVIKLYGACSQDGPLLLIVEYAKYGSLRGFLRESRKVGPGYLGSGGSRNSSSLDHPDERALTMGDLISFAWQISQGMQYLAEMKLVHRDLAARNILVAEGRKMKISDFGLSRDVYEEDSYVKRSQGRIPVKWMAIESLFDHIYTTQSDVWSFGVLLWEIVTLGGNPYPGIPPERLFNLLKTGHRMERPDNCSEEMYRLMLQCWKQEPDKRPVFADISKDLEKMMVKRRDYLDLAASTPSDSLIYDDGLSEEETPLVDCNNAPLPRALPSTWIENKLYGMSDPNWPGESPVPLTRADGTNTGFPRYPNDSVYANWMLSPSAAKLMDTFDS

SMILES | inhibition at 1 µM [1] | inhibition at 1 µM [2] | inhibition at 1 µM [3] | inhibition at 1 µM [4] | inhibition at 1 µM [5] | inhibition at 1 µM [6] | inhibition at 1 µM [7] | inhibition at 1 µM [8] | IC50 [9, 12] | IC50 ([9]; read-out: IC50) | Selectivity Score [10] | kinase selectivity profile ([10]; panel of approximately 336 wild-type kinases, in words) | inhibition at 1 µM ([11]; at 1 μM, read-out: inhibition of ABL2) | inhibition at 1 µM [11, 13]
O=C(c1ccc(Oc2ccccc2)cc1Cl)c1c[nH]c2ncnc(N[C@@H]3CC[C@@H](CO)OC3)c12 [ARQ-531, (2-chloro-4-phenoxyphenyl) (4-(((3R,6S)-6-(hydroxymethyl)tetrahydro-2H-pyran-3-yl)amino)-7H-pyrrolo[2,3-d]pyrimidin-5-yl) methanone] | 90 to 100% | 90 to 100% | 50 to 69% | 50 to 69% | 90 to 100% | 70 to 89% | 70 to 89% | 70 to 89% |  |  |  |  |  | 
Cc1cccnc1[C@H]1CCC[C@@H](c2ncccc2C)N1CCN1CCN(C(=O)c2ccc(-c3cc4c(-c5cccc(NC(=O)c6ccccc6)c5C)ncnc4[nH]3)cc2)CC1 [Compound I-10, N-(3-(6-(4-(4-(2-((2R,6S)-2,6-bis(3-methylpyridin-2-yl)piperidin-1-yl)ethyl)piperazine-1-carbonyl)phenyl)-7H-pyrrolo[2,3-d]pyrimidin-4-yl)-2-methylphenyl)benzamide] | < 50% | < 50% | < 50% | < 50% | < 50% | < 50% | < 50% | < 50% | 2000 to 4000 nM | 2670 nM | 0.053 | surprisingly high selectivity for BTK inhibition | 50 to 89% | 70 to 89%
Cc1cc(-c2ccnc(Nc3cnn(CCN4[C@@H](c5ncccc5C)CCC[C@H]4c4ncccc4C)c3)n2)ccc1CNC(=O)N1CC(OC(C)C)C1 [Compound I-11] |  |  |  |  |  |  |  |  |  |  | 0.032 |  |  | 
Cc1cccnc1[C@H]1CCC[C@@H](c2ncccc2C)N1CCCCNC(=O)[C@@H]1CC[C@@H](Nc2ncnc3[nH]cc(C(=O)c4ccc(Oc5ccccc5)cc4Cl)c23)CO1 [Compound I-16] |  |  |  |  |  |  |  |  | 1000 to 1500 nM | 1480 nM | 0.265 |  |  | 
Cc1cccnc1[C@H]1CCC[C@@H](c2ncccc2C)N1CCCCNC(=O)OC[C@@H]1CC[C@@H](Nc2ncnc3[nH]cc(C(=O)c4ccc(Oc5ccccc5)cc4Cl)c23)CO1 [Compound I-18] |  |  |  |  |  |  |  |  | 1000 to 1500 nM | 1330 nM | 0.221 |  |  | 
COc1ccc(F)cc1C(=O)NCc1ccc(-c2nn([C@@H](C)C(F)(F)F)c(N)c2C(N)=O)cc1 [LOXO-305, pirtobrutinib] | 50 to 69% | < 50% | < 50% | < 50% | < 50% | < 50% | < 50% | < 50% |  |  |  |  |  | < 50%
C=CC(=O)N1CCC([C@@H]2CCNc3c(C(N)=O)c(-c4ccc(Oc5ccccc5)cc4)nn32)CC1 [Zanubrutinib, (7S)-2-(4-phenoxyphenyl)-7-(1-prop-2-enoylpiperidin-4-yl)-4,5,6,7-tetrahydropyrazolo[1,5-a]pyrimidine-3-carboxamide] | < 50% | 50 to 69% | < 50% | < 50% | < 50% | < 50% | < 50% | < 50% | ≥ 4000 nM | 11900 nM |  |  |  | < 50%
